Entries after “also recorded” stand apart in the source; their conditions may differ. Like-named read-outs stand apart in the source and are kept apart here.
Experiments:
ZIKV Paraiba/2015 [1] = assay: Growth kinetics inhibition assay (infectious viral progeny), Vero cells; type: cell-based, Zika virus
ZIKV PRVABC59 strain = assay: Viral inhibition assay, post-treatment, new World strain, Vero cells; type: cell-based, Zika virus; settings: for EC50 / MIC: Zika virus; for EC50: new World ZIKV PRVABC59, Vero cells, post-treatment, 48 h; for MIC: new World ZIKV PRVABC59, read-out: PRVABC59 MIC (maximum effective concentration)
ZIKV Paraiba/2015 [2] = assay: Viral inhibition assay, post-infection treatment, Vero cells; type: cell-based, Zika virus; settings: for EC50: ZIKV Paraiba/2015, Vero cells, post-infection treatment, 36 h; for MIC: read-out: Post-treatment MIC (maximum effective concentration); for inhibitor category based on SI-MTT and SI-XTT / inhibitor category based on SI-MTT / inhibitor category based on SI-XTT: post-treatment, Paraiba/2015, Vero
ZIKV MR-766 strain = assay: Viral inhibition assay, post-treatment, old World strain, Vero cells; type: cell-based, Zika virus; settings: for EC50 / MIC: Zika virus; for EC50: old World ZIKV MR-766, Vero cells, post-treatment; for MIC: old World ZIKV MR-766 strain, read-out: MR766 MIC (maximum effective concentration)
[3] = tested on: ZIKV cocktail of MR-766, FSS13025, and MEX-2-81; settings: JEG-3 cells, ZIKV cocktail of MR-766, FSS13025, MEX-2-81; cited from earlier work
ZIKV Paraiba/2015 [4] = assay: Viral inhibition assay, post-treatment, human A549 cells; type: cell-based, Zika virus; settings: for inhibitor category based on SI-MTT and SI-XTT: Paraiba/2015, A549 cells; for MIC / EC50: Zika virus; for MIC: in Homo sapiens, read-out: A549 cells MIC (maximum effective concentration); for EC50: ZIKV Paraiba/2015, A549 cells, post-treatment, 36 h
[5] = MTT cell viability assay in Vero cells; type: cell-based, African green monkey; settings: African green monkey, non-infected Vero cells, 36 h post-treatment
ZIKV Paraiba/2015 [6] = assay: Viral inhibition assay, co-treatment, Vero cells; type: cell-based, Zika virus; settings: for Co-treatment MIC (maximum effective concentration): Vero cells, ZIKV Paraiba/2015, co-treatment; for inhibitor category based on SI-MTT / inhibitor category based on SI-MTT and SI-XTT / inhibitor category based on SI-XTT: co-treatment, Paraiba/2015, Vero
[7] = XTT cell proliferation in A549 cells; type: cell-based, human; settings: human, highest concentration used 50.00 µM, sentence also cites [17]
[8] = XTT cell proliferation assay in Vero cells; type: cell-based, African green monkey; settings: African green monkey, non-infected Vero cells, 36 h post-treatment
[9] = MTT cell viability in A549 cells; type: cell-based, human; settings: human, highest concentration used 50.00 µM, sentence also cites [17]
ZIKV Paraiba/2015 [10] = assay: Viral inhibition assay, pre-treatment (prophylactic), Vero cells; type: cell-based, Zika virus; settings: for MIC / EC50: Zika virus; for MIC: read-out: Pre-treatment MIC (maximum effective concentration); for EC50: ZIKV Paraiba/2015, Vero cells, pre-treatment 12 h before infection
ZIKV PRVABC59 [11] = tested on: ZIKV PRVABC59; set-up: method as in ref 22 = [22]; settings: ZIKV PRVABC59, U251 cells; cited from earlier work
ZIKV-MEX-2-81 = settings: ZIKV-MEX-2-81, U2OS cells; cited from earlier work
ZIKV PRVABC59 [12] = tested on: ZIKV PRVABC59; set-up: method as in ref 22 = [22]; settings: ZIKV PRVABC59, SF268 cells; cited from earlier work
ZIKV PRVABC59 [13] = tested on: ZIKV PRVABC59; set-up: method as in ref 22 = [22]; settings: ZIKV PRVABC59, Huh-7 cells; cited from earlier work
[14] = 0.1, 1, 10 EC50, all time points (24, 48, 72 h post-treatment), MOI 0.1
[15] = pre-treatment, Paraiba/2015, Vero

SMILES | effect on production of infectious viral progeny (viral titers) (ZIKV Paraiba/2015 [1]; [14]) | inhibitor category based on SI-MTT and SI-XTT (ZIKV PRVABC59 strain; ZIKV PRVABC59, Vero) | EC50 (ZIKV PRVABC59 strain) | MIC (ZIKV PRVABC59 strain) | EC50 (ZIKV Paraiba/2015 [2]) | EC50 (ZIKV Paraiba/2015 [2]; Zika virus, Vero) | MIC (ZIKV Paraiba/2015 [2]; Zika virus) | inhibitor category based on SI-MTT and SI-XTT (ZIKV Paraiba/2015 [2]) | EC50 (ZIKV MR-766 strain) | MIC (ZIKV MR-766 strain) | inhibitor category based on SI-MTT and SI-XTT (ZIKV Paraiba/2015 [4]) | MIC (ZIKV Paraiba/2015 [4]) | EC50 (ZIKV Paraiba/2015 [4]) | Co-treatment MIC (maximum effective concentration) (ZIKV Paraiba/2015 [6]) | inhibitor category based on SI-MTT (ZIKV Paraiba/2015 [6]) | CC50 [7] | CC50 [9] | MIC (ZIKV Paraiba/2015 [10]) | EC50 (ZIKV Paraiba/2015 [10]) | inhibitor category based on SI-XTT (ZIKV Paraiba/2015 [10]; [15]) | further results
COc1c(C)c2c(c(O)c1C/C=C(\C)CCC(=O)OCCN1CCOCC1)C(=O)OC2 [Mycophenolate mofetil] | dose-dependent inhibitory effect | potent | 0.12 µM | < 1.23 µM | 3.52 µM | 3.54 µM | > 100 µM | moderate to weak | 0.24 µM | < 1.23 µM | weak | < 11.1 µM | 0.83 µM | > 100.00 µM | Potent | > 50 µM | > 50 µM | > 100 µM | 8.11 µM | potent | inhibitor category based on SI-MTT and SI-XTT (ZIKV MR-766 strain; ZIKV MR-766, Vero): most potent; also recorded: potent; EC50 [3]: 0.76 µM; CC50 at 36 h ([5]; confluent monolayers): 166 µM; inhibitor category based on SI-MTT and SI-XTT (ZIKV Paraiba/2015 [6]): potent; inhibitor category based on SI-XTT (ZIKV Paraiba/2015 [6]): potent; CC50 at 36 h ([8]; confluent monolayers): > 1350 µM; inhibitor category based on SI-MTT (ZIKV Paraiba/2015 [10]; [15]): Potent; also recorded: moderate
NCC(=O)Nc1ccc(-n2nc(C(F)(F)F)cc2-c2ccc3c(ccc4ccccc43)c2)cc1 [OSU-03012] | – | – | 1.68 µM | > 11.1 µM | 8.4 µM | 6.85 µM | < 33.3 µM | weakest | 0.81 µM | < 11.1 µM | moderate | < 1.23 µM | 0.21 µM | > 100.00 µM | weak | > 50 µM | > 50 µM | < 3.7 µM | 0.93 µM | highest potent | EC50 (ZIKV PRVABC59 [11]): 0.84 µM; effect on production of infectious viral progeny (viral titers) (ZIKV Paraiba/2015 [1]; 1 EC50, all the analyzed times, may be caused by toxicity): Complete inhibition; inhibitor category based on SI-MTT (ZIKV PRVABC59 strain; ZIKV PRVABC59, Vero): weak; inhibitor category based on SI-XTT (ZIKV PRVABC59 strain; ZIKV PRVABC59, Vero): moderate; EC50 (ZIKV-MEX-2-81): 0.9 µM; inhibitor category based on SI-MTT (ZIKV Paraiba/2015 [2]): weak; inhibitor category based on SI-XTT (ZIKV Paraiba/2015 [2]): weak; inhibitor category based on SI-MTT (ZIKV MR-766 strain; ZIKV MR-766, Vero): weak; inhibitor category based on SI-XTT (ZIKV MR-766 strain; ZIKV MR-766, Vero): moderate; CC50 at 36 h [5]: 6.39 µM; EC50 (ZIKV Paraiba/2015 [6]; Zika virus, Vero): 1.77 µM; inhibitor category based on SI-XTT (ZIKV Paraiba/2015 [6]): potent; CC50 at 36 h [8]: 132 µM; EC50 (ZIKV PRVABC59 [12]): 1.18 µM; EC50 (ZIKV PRVABC59 [13]): 0.82 to 0.88 µM; inhibitor category based on SI-MTT (ZIKV Paraiba/2015 [10]; [15]): moderate
NC(=O)c1[nH]nc([C@@H]2O[C@H](CO)[C@@H](O)[C@H]2O)c1O [Pyrazofurin] | dose-dependent inhibitory effect | moderate | 0.95 µM | < 3.7 µM | 5.96 µM | 5.16 µM | > 100 µM | moderate to weak | 0.89 µM | < 3.7 µM | moderate | < 1.23 µM | 0.33 µM | > 100.00 µM | weak | > 50 µM | > 50 µM | > 100 µM | 313 µM | weakest | inhibitor category based on SI-MTT (ZIKV Paraiba/2015 [2]): moderate; inhibitor category based on SI-XTT (ZIKV Paraiba/2015 [2]): weak; inhibitor category based on SI-MTT and SI-XTT (ZIKV MR-766 strain; ZIKV MR-766, Vero): moderate; CC50 at 36 h ([5]; confluent monolayers): 271 µM; inhibitor category based on SI-MTT and SI-XTT (ZIKV Paraiba/2015 [6]): weak; CC50 at 36 h ([8]; confluent monolayers): > 1350 µM; inhibitor category based on SI-MTT and SI-XTT (ZIKV Paraiba/2015 [10]; [15]): weak

Reference: publication PMC7551609 (Viruses, 2020)
